In patent publication US20220306630A1, “AGONISTS OF ROR GAMMAt” (BRISTOL-MYERS SQUIBB COMPANY, priority 2019, published 2022):

target: T1, RORgT (Homo sapiens, UniProt P51449); test: RORgT Gal4 Luciferase Reporter Gene Assay; assay type: cell-based; conditions: engineered Jurkat cells overexpressing RORgT (LBD or full length) with Gal4 Luc reporter; 18 hours at 37° C.; 40 μM to 0.67 nM; read-out: RORg_GAL4 EC50
T1 construct: Gal4 (fusion partner); expressed in transfected cells; host or cells: engineered Jurkat cells (Jurkat pEx/Gal/hRORγ CLBD/HYG pG5luc/blast)
T1 sequence (P51449 267-516): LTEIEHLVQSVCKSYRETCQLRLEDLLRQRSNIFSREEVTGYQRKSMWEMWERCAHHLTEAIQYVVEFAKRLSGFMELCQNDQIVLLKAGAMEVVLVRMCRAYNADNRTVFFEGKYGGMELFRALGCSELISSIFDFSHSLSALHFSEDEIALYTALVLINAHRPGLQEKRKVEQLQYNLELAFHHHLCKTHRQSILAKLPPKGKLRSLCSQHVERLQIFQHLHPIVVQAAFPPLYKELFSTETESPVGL
Description: The compound and the cells were incubated for 18 hours at 37° C. in a cell culture incubator. Cells were then lysed with 15 uL of Steady-Glo Luciferase Assay reagent (Promega EZ550), followed by centrifuging the assay plates at 1500 RPM for 1 minute. Subsequently, the plates were read on the Envision (PerkinElmer). The inhibition of constitutive activity of RORgT achieved by graded concentrations of compound was calculated as a percentage of the luminescence signal window reduction over a control compound.

Structure (SMILES)	EC50 [nM]
COc1ccc(Oc2c(Cl)ccc(C(=O)N3CCN(C(C)=O)CC3)c2Cl)cc1C(C)C [Example 203]	129
COc1ncc(Oc2c(Cl)ccc(C(=O)N3CCC4(CC3)CN(S(C)(=O)=O)C4)c2Cl)cc1C(C)(C)F [Example 30, (2,4-dichloro-3-((5-(2-fluoropropan-2-yl)-6-methoxypyridin-3-yl)oxy)phenyl)(2-(methylsulfonyl)-2,7-diazaspiro[3.5]nonan-7-yl)methanone]	216
CC(C)c1cc(F)cc(Oc2c(Cl)ccc(C(=O)NC(C)c3ccc(S(C)(=O)=O)cc3)c2Cl)c1 (stereo not shown) [Example 140]	9.3
CC(c1cc(F)cc(Oc2c(Cl)cc(NC(=O)CC3CCN(S(C)(=O)=O)CC3)cc2Cl)c1)C(F)(F)F (stereo not shown) [Example 351]	5.7
COc1ccc(Oc2c(Cl)cc(NC(=O)Cc3ccnc(N)c3)cc2Cl)cc1C(C)C [Example 238]	752
COc1ccc(Oc2c(Cl)cc(NC(=O)CC3CCCN(S(C)(=O)=O)C3)cc2Cl)cc1C(C)C (racemic) [Example 41, N-(3,5-dichloro-4-(3-isopropyl-4-methoxyphenoxy)phenyl)-2-(1-(methylsulfonyl)piperidin-3-yl)acetamide]	356
CC(C)c1cc(F)cc(Oc2c(Cl)cc(NC(=O)CC3CC(=O)NC(=O)C3)cc2Cl)c1 [Example 330]	237
COc1ccc(Oc2c(Cl)cc(NC(=O)Cc3ccc(S(C)(=O)=O)nc3)cc2Cl)cc1C(C)C [Example 3, N-(3,5-dichloro-4-(3-isopropyl-4-methoxyphenoxy)phenyl)-2-(6-(methylsulfonyl) Pyridin-3-yl)acetamide]	54
CC1(c2cc(F)cc(Oc3c(Cl)ccc(C(=O)N4CCC5(CC4)CN(S(C)(=O)=O)C5)c3Cl)c2)CC1 [Example 277]	5.6
COc1ccc(Oc2c(Cl)cc(NC(=O)CCc3c(C)n[nH]c3C)cc2Cl)cc1C(C)C [Example 249]	1640
COc1ccc(Oc2c(Cl)ccc(C(=O)NCCCCO)c2Cl)cc1C(C)C [Example 81]	1310
COc1ccc(Oc2c(Cl)ccc(C(=O)N3CCc4cc(N)ccc4C3)c2Cl)cc1C(C)C [Example 108]	766
COc1ccc(Oc2c(Cl)cc(NC(=O)CCC(=O)O)cc2Cl)cc1C(C)C [Example 340]	5530
COc1ccc(Oc2c(Cl)cc(NC(=O)N3CCOCC3)cc2Cl)cc1C(C)C [Example 236]	597
COc1ccc(Oc2c(Cl)ccc(CNC(=O)c3ccc(S(C)(=O)=O)cc3Cl)c2Cl)cc1C(C)C [Example 62]	96
CCS(=O)(=O)N1CCCC(CC(=O)Nc2cc(Cl)c(Oc3ccc(OC)c(C(C)C)c3)c(Cl)c2)C1 (stereo not shown) [Example 322]	126
COc1ccc(Oc2c(Cl)cc(NC(=O)CN3CCC[C@H](NS(C)(=O)=O)C3)cc2Cl)cc1C(C)C [Example 168]	270
CCS(=O)(=O)NC1CCN(CC(=O)Nc2cc(Cl)c(Oc3ccc(OC)c(C(C)C)c3)c(Cl)c2)CC1 [Example 173]	265
COc1ccc(Oc2c(Cl)cc(NC(=O)CN3CCC[C@@H](NS(C)(=O)=O)C3)cc2Cl)cc1C(C)C [Example 171]	2590
CCS(=O)(=O)N[C@H]1CCCN(CC(=O)Nc2cc(Cl)c(Oc3ccc(OC)c(C(C)C)c3)c(Cl)c2)C1 [Example 172]	49
COC(=O)N1CCC(CNC(=O)c2ccc(Cl)c(Oc3ccc(OC)c(C(C)C)c3)c2Cl)CC1 [Example 111]	936

Structure (SMILES)	EC50 [nM]
CC(c1cc(F)cc(Oc2c(Cl)ccc(C(=O)NCc3ccc(S(N)(=O)=O)cc3)c2Cl)c1)C(F)(F)F (stereo not shown) [Example 355]	16
COc1ccc(Oc2c(Cl)ccc(C(=O)N3CCC4(CC3)CN(S(C)(=O)=O)C4)c2Cl)cc1C(C)C [Example 109]	17
COc1ccc(Oc2c(Cl)cc(NC(=O)CN3CC[C@H](NS(=O)(=O)C4CC4)C3)cc2Cl)cc1C(C)C [Example 170]	370
COc1ccc(Oc2c(Cl)ccc(C(=O)N3CCc4ccccc4C3)c2Cl)cc1C(C)C [Example 179]	1130
CCS(=O)(=O)N1CCC(CC(=O)Nc2cc(Cl)c(Oc3ccc(OC)c(C(C)C)c3)c(Cl)c2)CC1 [Example 319]	33
COc1ccc(Oc2c(Cl)ccc(C(=O)NCc3ccc(N(C)C)cc3)c2Cl)cc1C(C)C [Example 195]	616
Cc1ccc(Oc2c(Cl)cc(NC(=O)Cc3cccnc3)cc2Cl)cc1C(C)C [Example 49, N-(3,5-dichloro-4-(3-isopropyl-4-methylphenoxy)phenyl)-2-(pyridin-3-yl)acetamide]	344
CC(C)c1cc(Oc2c(Cl)cc(NC(=O)Cc3cccnc3)cc2Cl)ccc1Cl [Example 265]	204
COc1ncc(Oc2c(Cl)ccc(C(=O)NCC3CCN(S(C)(=O)=O)CC3)c2Cl)cc1C(C)C [Example 72]	33
CC(C)c1cc(F)cc(Oc2c(Cl)cc(NC(=O)CN3CCC(S(C)(=O)=O)CC3)cc2Cl)c1 [Example 331]	116
COc1ccc(Oc2c(Cl)ccc(C(=O)N(C)Cc3ccc(S(C)(=O)=O)cc3)c2Cl)cc1C(C)C [Example 67]	116
NS(=O)(=O)c1ccc(CNC(=O)c2ccc(Cl)c(Oc3cc(F)cc(CCC(F)(F)F)c3)c2Cl)cc1 [Example 326]	10
CCS(=O)(=O)c1ccccc1CNC(=O)c1cc(Cl)c(Oc2ccc(OC)c(C(C)C)c2)c(Cl)c1 [Example 157]	939
CC(C)c1cc(F)cc(Oc2c(Cl)ccc(C(=O)N3CCC4(CC3)CN(S(=O)(=O)C3CC3)C4)c2Cl)c1 [Example 125]	548
CC(C)c1cc(F)cc(Oc2c(Cl)ccc(CNC(=O)C3CCN(S(C)(=O)=O)CC3)c2Cl)c1 [Example 148]	4
CC(C)c1cc(F)cc(Oc2c(Cl)cc(NC(=O)CN3CCN(S(C)(=O)=O)CC3)cc2Cl)c1 [Example 332]	7.6
CCCS(=O)(=O)Nc1cc(Cl)c(Oc2ccc(OC)c(C(C)C)c2)c(Cl)c1 [Example 303]	858
COc1ccc(Oc2c(Cl)ccc(C(=O)NCCc3ccc(S(N)(=O)=O)cc3)c2Cl)cc1C(C)C [Example 219]	1500
COc1ccc(Oc2c(Cl)ccc(C(=O)NCc3cc(C)no3)c2Cl)cc1C(C)C [Example 205]	564
CC(C)c1cc(F)cc(Oc2c(Cl)ccc(C(=O)N3CCC(S(C)(=O)=O)CC3)c2Cl)c1 [Example 264]	39
CC(C)(F)c1cc(F)cc(Oc2c(Cl)ccc(C(=O)NCc3ccc(S(C)(=O)=O)cc3)c2Cl)c1 [Example 338]	1.8

Structure (SMILES)	EC50 [nM]
CC(C)c1cc(F)cc(Oc2c(Cl)cc(NC(=O)OC3CCCN(S(C)(=O)=O)C3)cc2Cl)c1 (stereo not shown) [Example 25, 1-(methylsulfonyl)piperidin-3-yl (3,5-dichloro-4-(3-fluoro-5-isopropylphenoxy)phenyl)carbamate]	626
COc1ccc(Oc2c(Cl)ccc(CNC(=O)C3CN(S(C)(=O)=O)C3)c2Cl)cc1C(C)C [Example 88]	24
COc1ccc(Oc2c(Cl)cc(C(=O)NCc3ccc(S(C)(=O)=O)cc3)cc2Cl)cc1C(C)C [Example 158]	499
CC(C)c1cc(F)cc(Oc2c(Cl)ccc(C(=O)N3CCC4(CC3)CN(S(C)(=O)=O)C4)c2Cl)c1 [Example 112]	14
COc1ccc(Oc2c(Cl)ccc(C(=O)NCCc3ccccc3Cl)c2Cl)cc1C(C)C [Example 199]	3890
COc1ccc(Oc2c(Cl)cc(NC(=O)CCN3CCOCC3)cc2Cl)cc1C(C)C [Example 296]	1010
CC(C)c1cc(F)cc(Oc2c(Cl)ccc(NC(=O)CC3CCN(S(C)(=O)=O)CC3)c2Cl)c1 [Example 130]	5.5
CCS(=O)(=O)N[C@@H]1CCCN(CC(=O)Nc2cc(Cl)c(Oc3ccc(OC)c(C(C)C)c3)c(Cl)c2)C1 [Example 167]	245
CC(=O)NC[C@H]1CN(c2cc(Cl)c(Oc3cc(F)cc(C(C)C)c3)c(Cl)c2)C(=O)O1 [Example 272]	260
COc1ccc(Oc2c(Cl)ccc(C(=O)NCCc3cccnc3)c2Cl)cc1C(C)C [Example 76]	922
COc1ccc(Oc2c(Cl)cc(NC(=O)OCCn3ccnc3)cc2Cl)cc1C(C)C [Example 235]	1270
COc1ccc(Oc2c(Cl)ccc(CNC(=O)C3CCN(S(=O)(=O)C4CC4)CC3)c2Cl)cc1C(C)C [Example 97]	14
COc1ccc(Oc2c(Cl)ccc(C(=O)N(C)C)c2Cl)cc1C(C)C [Example 78]	1050
COc1ccc(Oc2c(Cl)ccc(C(=O)NCc3ccccc3Cl)c2Cl)cc1C(C)C [Example 200]	330
COc1ccc(Oc2c(Cl)ccc(C#N)c2Cl)cc1C(C)C [Example 18, 2,4-dichloro-3-(3-isopropyl-4-methoxyphenoxy)benzonitrile]	1870
COc1ccc(Oc2c(Cl)cc(NC(=O)CN3CC(NS(C)(=O)=O)C3)cc2Cl)cc1C(C)C [Example 163]	340
COc1ccc(Oc2c(Cl)ccc(C(=O)N3CCCC3)c2Cl)cc1C(C)C [Example 210]	105
CCS(=O)(=O)N1CCC(CC(=O)Nc2cc(Cl)c(Oc3cnc(OC)c(C(C)C)c3)c(Cl)c2)CC1 [Example 120]	37
COc1ncc(Oc2c(Cl)ccc(CNC(=O)C3CCN(S(N)(=O)=O)CC3)c2Cl)cc1C(C)C [Example 147]	9.6
